This assay can be described thus: In vitro whitening and cleaning of stained test samples.

Data on one molecule can be found in patent US20250345253A1 (priority 2024, published 2025).

Regarding `O=c1nc([O-])n(Cl)c(=O)n1Cl.[Na+]` [dichloroisocyanurate], the “Whitening and cleaning performance versus hydrogen peroxide solutions and salts” value (compared with cleaning solutions of up to 25% hydrogen peroxide and hydrogen peroxide salts (sodium perborate)) was “outperformed both hydrogen peroxide cleaning solutions of up to 25% hydrogen peroxide and hydrogen peroxide salts (sodium perborate)”. For the setting “compared with other cleaning formulations containing hydrogen peroxide”, the “Whitening and cleaning of stained test samples” value was “whitened and cleaned stained test samples better than other cleaning formulations containing hydrogen peroxide”.
